The record followed here is US6964983B2, “Compounds that modulate PPAR activity and methods for their preparation” (Warner-Lambert Company, LLC, priority 2002, dated 2005).

One may read the melting point as the temperature of the solid-liquid transition.

For data set [1], the system named is hApoA1 transgenic mouse. As to the kind of experiment: Lipid concentrations in the hApoA1 transgenic mouse. The data set is classed as in vivo. As to conditions: 30 mg/kg/day, oral gavage. The protocol: B. Effect of PPAR Modulators on Lipid and Human Apoprotein A1 Concentrations in the hApoA1 Transgenic Mouse
Mice, transgenic for human apoA1, were purchased from Jackson laboratories. All animals were allowed normal chow (Ralston-Purina) and water ad libitum in temperature controlled rooms, under a 12-h light, 12-h dark cycle beginning with lights on at 6 AM. During the treatment phase of the study the mice were dosed daily between 6 and 9 AM by oral gavage using a suspension vehicle of 1.5% carboxymethylcellulose plus 0.2 percent Tween-20 (CMC/Tween) containing the specified compounds. Control animals received vehicle alone. Vehicle volume represented 0.25 percent of body weight. Under anesthesia, tail blood was obtained weekly in the morning at the indicated days of study. At termination, tissue samples (liver, intestine, fat, and muscle) were taken to study effects on genes effecting lipid metabolism. Each of the compounds of the present invention that were tested effected a significant increase in HDL over the values observed for the control animals. […] For instance, Example 4 raised HDL-c 97% and lowered triglycerides 65% relative to the control population, Example 6 raised HDL-c 24% and lowered triglycerides 59% relative to the control population, and Example 3 raised HDL-c 9% and lowered triglycerides 70% relative to the control population.

Data set [2] deals with insulin resistant cynomolgus monkeys. Nature of the data set: Eight-week rising-dose treatment of insulin resistant cynomolgus monkeys. The data set is classed as in vivo. As to conditions: for Leptin (plasma, ELISA): Insulin Resistant Treated; for Insulin Resistant Monkey Mean Body Weight: treated group (Txt). The protocol:
(§1) C. Effect of Compounds of the Invention on Insulin Resistant or Diabetic Cynomolgus Monkeys
Cynomolgus monkeys that were either insulin resistant or diabetic (type II) were treated for eight weeks with [5-Methoxy-2-methyl-4-(4′-trifluoromethyl-biphenyl-4-ylmethylsulfanyl)-phenoxy]-acetic acid in a rising dose fashion (0.1 to 1 mg/kg). Plasma was sampled bi-weekly and analyzed for glycemics and leptin. Body weight was also measured at various time points across the study. The diabetic monkey mean body weight data is presented in Table 2 and the insulin resistant monkey mean body weight data is presented in Table 3. […]

The subject of data set [3] is diabetic cynomolgus monkeys. Nature of the data set: Eight-week rising-dose treatment of diabetic (type II) cynomolgus monkeys. The data set is classed as in vivo. Conditions: for Exogenous Insulin Requirement / Leptin (plasma, ELISA): Diabetic Treated; for Diabetic Monkey Mean Body Weight: treated group (Txt). The protocol: as §1
Cynomolgus monkeys that were either insulin resistant or diabetic (type II) were treated for eight weeks with [5-Methoxy-2-methyl-4-(4′-trifluoromethyl-biphenyl-4-ylmethylsulfanyl)-phenoxy]-acetic acid in a rising dose fashion (0.1 to 1 mg/kg). Plasma was sampled bi-weekly and analyzed for glycemics and leptin. Body weight was also measured at various time points across the study. The diabetic monkey mean body weight data is presented in Table 2 and the insulin resistant monkey mean body weight data is presented in Table 3.
The amount of exogenous insulin the diabetic monkeys received to maintain proper glucose levels, the exogenous insulin requirement, is also presented in Table 4 as baseline values vs. 8-week treatment. […] A reduction in exogenous insulin requirements is a measure of improved insulin sensitivity and glucose control.
A general note: An ELISA detects its analyte on a solid surface through an enzyme-linked reagent.

In data set [4] the target is T1, hPPARα (Homo sapiens, UniProt Q07869).
T1 sequence (Q07869 200-468 limits assumed): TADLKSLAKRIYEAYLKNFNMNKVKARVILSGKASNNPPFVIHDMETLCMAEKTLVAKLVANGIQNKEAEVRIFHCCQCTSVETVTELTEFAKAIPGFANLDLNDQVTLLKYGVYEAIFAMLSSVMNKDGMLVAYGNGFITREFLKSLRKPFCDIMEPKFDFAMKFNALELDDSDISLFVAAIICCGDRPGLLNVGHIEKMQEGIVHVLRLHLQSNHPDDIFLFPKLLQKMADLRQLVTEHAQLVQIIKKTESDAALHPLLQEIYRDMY
As to the kind of experiment: Transient transfection assay in HepG2 cells, Gal4-hPPARα chimeric receptor, luciferase reporter. As to conditions: Hep G2-hAlpha EC50, 24 hours incubation; read-out: EC50α nM (Group). The data set is classed as cell-based. Summed up:
(§2)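 HepG2 cells were transiently co-transfected with Gal4-hPPARα or Gal4-hPPARβ chimeras, a UAS-E1B luciferase reporter and a β-gal normalisation plasmid. After re-plating, cells were treated with compound at 50 pM–50 μM for 24 h at 37°C. EC50 values were derived from luciferase read-out normalised to β-gal.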
(In general: Reporter assays use an easily measured gene product as a stand-in for the process of interest.)

For data set [5], the target named is T2, hPPARβ (Homo sapiens, UniProt Q03181).
T2 sequence (Q03181 171-441 limits assumed): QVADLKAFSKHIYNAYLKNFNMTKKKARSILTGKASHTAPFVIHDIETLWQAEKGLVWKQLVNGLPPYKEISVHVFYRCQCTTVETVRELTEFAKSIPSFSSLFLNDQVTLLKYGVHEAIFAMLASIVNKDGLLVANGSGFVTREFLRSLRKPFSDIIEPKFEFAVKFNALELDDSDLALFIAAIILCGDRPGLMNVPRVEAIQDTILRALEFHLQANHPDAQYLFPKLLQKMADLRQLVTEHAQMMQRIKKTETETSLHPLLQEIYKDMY
As to the kind of experiment: Transient transfection assay in HepG2 cells, Gal4-hPPARβ chimeric receptor, luciferase reporter. The data set is classed as cell-based. Conditions: Hep G2-hBeta EC50, 24 hours incubation; read-out: EC50β nM (Group). An outline of the steps: as §2

Where [6] appears, read: Post-Treatment (8-week treatment).
[7] abbreviates: 2 wk, rising dose 0.1 to 1 mg/kg.
Where [8] appears, read: 8 wk, rising dose 0.1 to 1 mg/kg.

Consider `Cc1cc(SCc2ccc(-c3ccc(Cl)c(C(F)(F)F)c3)cc2)ccc1OCC(=O)O` [Example 6, [4-(4′-Chloro-3′-trifluoromethyl-biphenyl-4-ylmethylsulfanyl)-2-methyl-phenoxy]-acetic acid], for which, in data set [1], the “lowered triglycerides relative to the control population” value was 59% and the “raised HDL-c relative to the control population” value turned out to be 24%.
On to `COc1cc(OCC(=O)O)c(C)cc1SCc1ccc(-c2ccc(C(F)(F)F)cc2)cc1` [[5-Methoxy-2-methyl-4-(4′-trifluoromethyl-biphenyl-4-ylmethylsulfanyl)-phenoxy]-acetic acid], for which the “Leptin (plasma, ELISA)” value in data set [2] (setting [6]) turned out to be 5.73 ± 2.14 ng/mL; in data set [2] (Pre-Treatment (baseline)), 7.33 ± 1.16 ng/mL; in data set [3] (setting [6]) it was 10.89 ± 2.7 ng/mL; in data set [3] (Pre-Treatment (baseline)), 7.22 ± 0.93 ng/mL. Further, the “effect on plasma leptin values” is recorded as “lesser increase in plasma leptin values” in data set [2] (insulin resistant obese cynomolgus monkeys, treated vs control, baseline vs 8 weeks) and “lesser increase in plasma leptin values” in data set [3] (diabetic obese cynomolgus monkeys, treated vs control, baseline vs 8 weeks). Further, the Insulin Resistant Monkey Mean Body Weight in data set [2] (setting [7]) turned out to be 5.26 kg; in data set [2] (4 wk, rising dose 0.1 to 1 mg/kg), 5.04 kg; in data set [2] (6 wk, rising dose 0.1 to 1 mg/kg), 4.91 kg; in data set [2] (setting [8]) it was 4.71 kg; in data set [2] (Mean Baseline), 5.29 kg; in data set [2] (−4 wk, before treatment) it was 5.32 kg. The same molecule registered an Insulin Resistant Monkey Mean Body Weight in data set [2] (−7 wk, before treatment) of 5.25 kg. The entries for the “Exogenous Insulin Requirement” value in data set [3] (setting [6]) and in data set [3] (Pre-Treatment (baseline)) were 18 ± 4 u/day and 66 ± 16 u/day, respectively. Also, the Diabetic Monkey Mean Body Weight in data set [3] (setting [7]) was found to be 8.75 kg; in data set [3] (5 wk, rising dose 0.1 to 1 mg/kg), 8.37 kg; in data set [3] (7 wk, rising dose 0.1 to 1 mg/kg), 8.08 kg; in data set [3] (setting [8]) it was 7.8 kg; in data set [3] (Mean Baseline) it was 8.87 kg; in data set [3] (−4 wk, before treatment) it was 8.91 kg. In data set [3] (−7 wk, before treatment), the Diabetic Monkey Mean Body Weight is 8.84 kg.
In turn, `Cc1cc(SCc2ccc(-c3ccc(C(F)(F)F)cc3)cc2)ccc1OCC(=O)O` [Example 3, [2-Methyl-4-(4′-trifluoromethyl-biphenyl-4-ylmethylsulfanyl)-phenoxy]-acetic acid] had a melting point of 140 to 141 °C. In data set [4], the EC50 lay within 2000 to 5000 nM. For the same molecule, the EC50 in data set [5] is less than 300 nM. Also, in data set [1], the “lowered triglycerides relative to the control population” value came to 70% and the “raised HDL-c relative to the control population” value came to 9%.
The corresponding values for `COc1cc(OCC(=O)O)c(C)cc1SCc1ccc(-c2ccc(C(F)(F)F)cc2)cc1` [Example 4, [5-Methoxy-2-methyl-4-(4′-trifluoromethyl-biphenyl-4-ylmethylsulfanyl)-phenoxy]-acetic acid] are 170 to 171 °C, less than 300 nM, less than 300 nM, 65% and 97%.
